Molecular target: Mitogen-activated protein kinase kinase kinase kinase 1 (Homo sapiens, UniProt Q92918)
Test: Assay for In Vitro Inhibitory Activity Against HPK1 Kinase
Protocol: A kinase buffer (Enzymatic buffer 5×) was diluted to 1×, and 10 mM MgCl2, 1 mM DTT, and 0.005% Tween 20 were added. A 100 ng/μL HPK1 (Life technology) stock solution was diluted with the kinase buffer to obtain a 1.67×, 1.67 ng/μL working solution (final concentration: 1 ng/μL), and the working solution was seeded in a 384-well plate at 6 μL/well. Different compounds dissolved in DMSO were added to the wells using a nanoliter pipettor to obtain final concentrations of the compounds of 1000 nM to 0.244 nM (4-fold serial dilution, 7 concentrations in total), and blank control wells (without enzyme) and negative control wells (with enzyme, plus vehicle DMSO) were set; the wells were set in duplicate. After the enzyme and the compounds were incubated at room temperature for 1 h, a 5×, 5 mM ATP dilution (final concentration: 1 mM) in the kinase buffer was mixed with a 5×, […] (Cisbio, STK Substrate 1-biotin; final concentration: 500 nM) in equal volume, and the mixture was added to the plate at 4 µL/well. The plate was sealed with a film and then incubated at room temperature for 2 h. An assay antibody solution was prepared by mixing the antibody STK Antibody-cryptate (Cisbio, 5 μL/test) and a 4×, 500 nM Streptavidin-XL665 (Cisbio; final concentration: 125 nM) in equal volume and added to the plate at 10 μL/well. The plate was incubated at room temperature for 1 h. The signal values ([…]) were measured using a PE Envision multimode microplate reader, and IC50 was calculated by four-parameter fitting.

Mitogen-activated protein kinase kinase kinase kinase 1, sequence (Q92918 whole entry): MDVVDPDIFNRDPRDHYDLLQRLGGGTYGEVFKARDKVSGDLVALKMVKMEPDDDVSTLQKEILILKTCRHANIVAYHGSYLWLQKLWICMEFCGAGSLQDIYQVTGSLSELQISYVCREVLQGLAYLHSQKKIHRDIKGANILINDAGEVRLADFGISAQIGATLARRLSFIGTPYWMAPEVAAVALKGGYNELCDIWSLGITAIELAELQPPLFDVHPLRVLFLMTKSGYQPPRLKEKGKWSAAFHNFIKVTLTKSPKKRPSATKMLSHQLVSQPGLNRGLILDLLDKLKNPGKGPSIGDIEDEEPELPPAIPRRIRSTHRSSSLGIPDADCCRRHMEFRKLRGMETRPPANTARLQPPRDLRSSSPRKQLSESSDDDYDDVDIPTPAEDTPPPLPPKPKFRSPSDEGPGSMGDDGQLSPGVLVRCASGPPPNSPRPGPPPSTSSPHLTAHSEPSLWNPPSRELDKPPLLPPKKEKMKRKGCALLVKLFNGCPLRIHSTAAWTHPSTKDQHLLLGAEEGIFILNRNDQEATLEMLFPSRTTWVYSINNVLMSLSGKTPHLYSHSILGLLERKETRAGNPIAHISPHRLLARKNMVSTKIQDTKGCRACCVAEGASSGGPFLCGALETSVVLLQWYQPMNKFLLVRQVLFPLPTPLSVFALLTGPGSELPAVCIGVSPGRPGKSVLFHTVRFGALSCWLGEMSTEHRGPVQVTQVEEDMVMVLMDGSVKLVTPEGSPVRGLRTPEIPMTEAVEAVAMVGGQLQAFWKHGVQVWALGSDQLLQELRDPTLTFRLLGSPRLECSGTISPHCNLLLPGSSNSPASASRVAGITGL

First: CN(C)Cc1nc(Nc2ccc(-c3ncnc4[nH]c5c(c34)CCC5)c3c2C(=O)NC3)ccc1C1CCOCC1 [US20250236619, Compound I-24]
Second: CN(C)Cc1nc(Nc2cnc(-c3nnc4ccc5c(n34)CCC5)c3c2C(=O)NC3)ccc1C1CCOCC1 [US20250236619, Compound I-25]
The IC50 of the first is 2.9-fold lower: 11 nM for the first, 32 nM for the second. The first is the more potent here.

Compared with `CN(C)Cc1nc(Nc2ccc(-c3cnc4ccc5occc5n34)c3c2C(=O)NC3)ccc1C1CCN(C)C(=O)C1` (stereo not drawn) [US20250236619, Compound I-66], `CN(C)Cc1nc(Nc2ccc(-c3cnc4ccc5occc5n34)c3c2C(=O)NC3)ccc1N1CCN(C)C1=O` [US20250236619, Compound I-50] is 12-fold higher in IC50: 2.5 nM for the first, 29 nM for the second.

Going from `CN(C)Cc1nc(Nc2cnc(-c3cnn4ccc5occc5c34)c3c2C(=O)NC3)ccc1N1CCOCC1` [US20250236619, Compound I-47] to `CN(C)Cc1nc(Nc2cnc(-c3cnn4ccc5occc5c34)c3c2C(=O)NC3)ccc1C1CCOCC1` [US20250236619, Compound I-46], the IC50 falls from 4.7 nM to 2.1 nM (2.2-fold).

`CN(C)Cc1nc(Nc2ccc(-c3cnc4cnc5occc5n34)c3c2C(=O)NC3)ccc1C1CCN(C)CC1` [US20250236619, Compound I-80] and `CN(C)Cc1nc(Nc2ccc(-c3cnc4cnc5occc5n34)c3c2C(=O)NC3)ccc1C1CCOCC1` [US20250236619, Compound I-48] are within 1.5-fold of each other in IC50: 2.8 nM for the first, 2.6 nM for the second.

`CN(C)Cc1nc(Nc2ccc(-c3cnn4c3CC3(CC3)C4)c3c2C(=O)NC3)ccc1C1CCOCC1` [US20250236619, Compound I-34] and `[2H]C([2H])(c1nc(Nc2ccc(-c3cnn4c3CC3(CC3)C4)c3c2C(=O)NC3)ccc1C1CCOCC1)N(C)C` [US20250236619, Compound I-53] are within 1.5-fold of each other in IC50: 2.1 nM for the first, 2.7 nM for the second.

Compared with `CN(C)Cc1nc(Nc2ccc(-c3cnc4ccc5occc5n34)c3c2C(=O)NC3)ccc1N1CCCC1=O` [US20250236619, Compound I-52], `CN(C)Cc1nc(Nc2ccc(-c3cnc4cnc5occc5n34)c3c2C(=O)NC3)ccc1C1CC(=O)N(C)C1` (stereo not drawn) [US20250236619, Compound I-58] is 6.4-fold lower in IC50: 36 nM for the first, 5.6 nM for the second. The second is the more potent here.

Going from `CN(C)Cc1nc(Nc2cnc(-c3cnn4c3CC3(CC3)C4)c3c2C(=O)NC3)ccc1C1CCOCC1` [US20250236619, Compound I-55] to `CN(C)Cc1nc(Nc2ccc(-c3cnn4c3CC3(CC3)C4)c3c2C(=O)NC3)ccc1C1CCN(C)C(=O)C1` (stereo not drawn) [US20250236619, Compound I-67], the IC50 falls from 15 nM to 4.6 nM (3.3-fold).

`CN(C)Cc1nc(Nc2ccc(-c3cnn4ccc5occc5c34)c3c2C(=O)NC3)ccc1C1CCN(C)CC1` [US20250236619, Compound I-83] and `CN(C)Cc1nc(Nc2ccc(-c3cnn4ccc5occc5c34)c3c2C(=O)NC3)ccc1C1CCOCC1` [US20250236619, Compound I-38] are within 1.5-fold of each other in IC50: 2 nM for the first, 1.7 nM for the second.

`CN(C)Cc1nc(Nc2ccc(-c3cnn4ccc5occc5c34)c3c2C(=O)NC3)ccc1C1CC(=O)N(C)C1` (stereo not drawn) [US20250236619, Compound I-59] and `CN(C)Cc1nc(Nc2ccc(-c3cnn4ccc5occc5c34)c3c2C(=O)NC3)ccc1N1CCN(C)C(=O)C1` [US20250236619, Compound I-76] are within 1.5-fold of each other in IC50: 2.3 nM for the first, 1.8 nM for the second.

Compared with `CN(C)Cc1nc(Nc2ccc(-c3cnn4ccc5occc5c34)c3c2C(=O)NC3)ccc1C1CCCO1` (stereo not drawn) [US20250236619, Compound I-64], `CC(=O)N(C)c1ccc(Nc2ccc(-c3cnn4ccc5occc5c34)c3c2C(=O)NC3)nc1CN(C)C` [US20250236619, Compound I-70] is 2.6-fold higher in IC50: 2.9 nM for the first, 7.5 nM for the second.

First: CN(C)Cc1nc(Nc2ccc(-c3cnn4ccc5occc5c34)c3c2C(=O)NC3)ccc1-c1ccn(C)c(=O)c1 [US20250236619, Compound I-81]
Second: O=C1NCc2c(-c3cnn4ccc5occc5c34)ccc(Nc3ccc(N4CCOCC4)c([C@H]4CCCN4)n3)c21 [US20250236619, Compound I-57]
The IC50 of the first is 8.5-fold lower: 2 nM for the first, 17 nM for the second. The first is the more potent here.

Going from `CN(C)Cc1nc(Nc2ccc(-c3cnc4cnc5occc5n34)c3c2C(=O)NC3)ccc1C1CCCO1` (stereo not drawn) [US20250236619, Compound I-65] to `CN(C)Cc1nc(Nc2ccc(-c3cnc4cnc5occc5n34)c3c2C(=O)NC3)ccc1C1CCOC1` (stereo not drawn) [US20250236619, Compound I-54], the IC50 falls from 21 nM to 6.6 nM (3.2-fold).

First: CN(C)Cc1nc(Nc2ccc(-c3ccnc4c3c3c(n4C)CCC3)c3c2C(=O)NC3)ccc1C1CCN(C)C(=O)C1 (stereo not drawn) [US20250236619, Compound I-84]
Second: [2H]C([2H])(c1nc(Nc2cnc(-c3ccnc4c3c3c(n4C)CCC3)c3c2C(=O)NC3)ccc1C1CCOCC1)N(C)C [US20250236619, Compound I-17]
The IC50 of the first is 1.5-fold higher: 2.6 nM for the first, 1.7 nM for the second. The second is the more potent here.

First: CNCc1nc(Nc2ccc(-c3cnn4ccc5occc5c34)c3c2C(=O)NC3)sc1C1CCOCC1 [US20250236619, Compound I-85]
Second: CN(C)Cc1nc(Nc2ccc(-c3cnc4ccc5c(n34)CCO5)c3c2C(=O)NC3)ccc1C1CCOCC1 [US20250236619, Compound I-35]
The IC50 of the first is 1.7-fold lower: 3.8 nM for the first, 6.4 nM for the second. The first is the more potent here.
